Measurements published in patent US20230113609A1, “SSTR5 ANTAGONISTS” (Kallyope, Inc., priority 2019, published 2023).

Legend:
human SSTR5 = target: T1, human SSTR5 (Homo sapiens, UniProt P35346); assay: Inositol phosphate accumulation assay (IP1 HTRF, antagonist mode); type: cell-based; conditions: CHO-K1 cells co-expressing human SSTR5 with Gqi5, SST28 agonist at concentration generating 90% of full activation
T1 construct: expressed in transfected cells
How it was run: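 CHO-K1 cells stably co-expressing human SSTR5 and chimeric Gqi5 were pre-incubated with compound 15 minutes at 37° C, then stimulated with SST28 (30 nM as added, about EC90) for 90 minutes. IP1 read by HTRF (665/620 nm). % inhibition normalized to Max/Min controls; IC50 and maximal inhibition from 4-parameter fit.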

[1] = Oral bioavailability of the compounds after oral dosing in rat; conditions: in vivo, IV 1 mg/kg, PO 5 mg/kg, vehicle 5% DMSO + 30% PEG400 + 65% water
Procedure: Oral bioavailability of the compounds was determined in Sprague Dawley rats (Compound 90) or Wistar Han rats (Compound 81). The table below summarizes the results. Each compound was dosed intravenously (IV) at 1 mg/kg and orally (PO) 5 mg/kg using the respective vehicles listed below. The compounds display low (<10%) oral bioavailability (F%).

T1 sequence (P35346 whole entry): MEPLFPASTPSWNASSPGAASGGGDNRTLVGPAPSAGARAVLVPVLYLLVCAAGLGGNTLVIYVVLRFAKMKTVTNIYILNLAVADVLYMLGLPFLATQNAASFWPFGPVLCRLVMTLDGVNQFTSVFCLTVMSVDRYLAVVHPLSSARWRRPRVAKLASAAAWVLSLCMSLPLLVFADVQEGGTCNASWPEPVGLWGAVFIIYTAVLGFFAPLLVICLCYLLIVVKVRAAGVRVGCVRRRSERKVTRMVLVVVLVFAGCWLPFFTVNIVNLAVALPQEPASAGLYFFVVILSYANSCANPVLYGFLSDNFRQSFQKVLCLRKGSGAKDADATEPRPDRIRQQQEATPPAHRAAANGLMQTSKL

Structure (SMILES)	IC50 (human SSTR5) [nM]	bioavailability ([1]; Wistar Han rats) [%]	bioavailability ([1]; Sprague Dawley rats) [%]
CCOc1cc(-c2ccc(F)cc2)c(C2CC2)cc1CN1CCC2(CC1)CN(c1ccc(S(=O)(=O)NCCOCCO)cc1)C(=O)O2 [Example 81, 4-(8-((2-cyclopropyl-5-ethoxy-4′-fluoro-[1,1-biphenyl]-4-yl)methyl)-2-oxo-1-oxa-3,8-diazaspiro[4.5]decan-3-yl)-N-(2-(2-hydroxyethoxy)ethyl)benzenesulfonamide]	≤ 100	7	
CCOc1cc(-c2ccc(F)cc2)c(C2CC2)cc1CN1CCC2(CC1)CN(c1ccc(C(=O)NCCOCCO)cc1)S(=O)(=O)N2 [compound 87, 4-(8-((2-cyclopropyl-5-ethoxy-4′-fluoro-[1,1′-biphenyl]-4-yl)methyl)-2,2-dioxido-2-thia-1,3,8-triazaspiro [4.5]decan-3-yl)-N-(2-(2-hydroxyethoxy)ethyl)benzamide]	≤ 100		
CCOc1cc(-c2ccc(F)cn2)c(C2CC2)cc1CN1CCC2(CC1)CN([C@H]1CC[C@@](C)(C(=O)NCCCS(=O)(=O)O)CC1)C(=O)O2 [compound 88]	100 to 1000		
CCOc1cc(-c2ccc(F)cn2)c(C2CC2)cc1CN1CCC2(CC1)CN([C@H]1CC[C@@](C)(C(=O)NCCOCCO)CC1)C(=O)O2 [compound 89]	100 to 1000		
CCOc1cc(-c2ccc(F)cn2)c(C2CC2)cc1CN1CCC2(CC1)CN([C@H]1CC[C@](C)(C(=O)NCCOCCO)CC1)C(=O)O2 [compound 90]	≤ 100		2.6
CCOc1cc(-c2ccc(F)cn2)c(C2CC2)cc1CN1CCC2(CC1)CN([C@H]1CC[C@](C)(C(=O)NCCCS(=O)(=O)O)CC1)C(=O)O2 [compound 91]	≤ 100		
CCOc1cc(-c2ccc(F)cc2)c(C2CC2)cc1CN1CCC2(CC1)CN(C13CC(C(=O)NCCOCCO)(C1)C3)C(=O)O2 [compound 92, 3-(8-((2-cyclopropyl-5-ethoxy-4′-fluoro-[1,1′-biphenyl]-4-yl)methyl)-2-oxo-1-oxa-3,8-diazaspiro [4.5]decan-3-yl)-N-(2-(2-hydroxyethoxy)ethyl)bicyclo [1.1.1] pentane-1-carboxamide]	≤ 100		
CCOc1cc(C(=O)OC)c(C2CC2)cc1CN1CCN(C(=O)Nc2ccc(C(=O)NC[C@H](O)[C@@H](O)[C@H](O)[C@H](O)CO)cc2)CC1 [compound 93, methyl 2-cyclopropyl-5-ethoxy-4-[[4-[[4-[[(2S,3R,4R,5R)-2,3,4,5,6-pentahydroxyhexyl]carbamoyl]phenyl]carbamoyl]piperazin-1-yl]methyl]benzoate]	1000 to 5000		
CCOc1cc(-c2ccc(F)cc2)c(C2CC2)cc1CN1CCN(C(=O)Oc2ccc(C(=O)NC[C@H](O)[C@@H](O)[C@H](O)[C@H](O)CO)cc2)CC1 [compound 94]	≤ 100		
CCOc1cc(C#N)c(C2CC2)cc1CN1CCN(C(=O)Oc2ccc(C(=O)NCCCC(=O)NCCO)cc2)CC1 [compound 95, [4-[[4-(2-hydroxyethylamino)-4-oxo-butyl]carbamoyl]phenyl]4-[(4-cyano-5-cyclopropyl-2-ethoxy-phenyl)methyl]piperazine-1-carboxylate]	> 5000		
